Results: patent publication US11780830B2, “Triazolone derivatives or salts thereof and pharmaceutical compositions comprising the same” (YUHAN CORPORATION, priority 2018, dated 2023)
Where a name gives a salt, the structure may show the parent alone.

Assays:
Format in all cases: biochemical
[1] = target: T1, recombinant human VAP-1 (Homo sapiens, UniProt Q16853); experiment: Activity on recombinant human VAP-1, HRP-coupled Amplex Red hydrogen peroxide assay; details: substrate 1 mM benzylamine; compound incubated with enzyme at 37° C. for 30 minutes; pH 7.4; read-out: Inhibitory Activity (IC50, nM) human VAP-1
T1 construct: purchased R&D systems
T1 sequence (Q16853 1-763): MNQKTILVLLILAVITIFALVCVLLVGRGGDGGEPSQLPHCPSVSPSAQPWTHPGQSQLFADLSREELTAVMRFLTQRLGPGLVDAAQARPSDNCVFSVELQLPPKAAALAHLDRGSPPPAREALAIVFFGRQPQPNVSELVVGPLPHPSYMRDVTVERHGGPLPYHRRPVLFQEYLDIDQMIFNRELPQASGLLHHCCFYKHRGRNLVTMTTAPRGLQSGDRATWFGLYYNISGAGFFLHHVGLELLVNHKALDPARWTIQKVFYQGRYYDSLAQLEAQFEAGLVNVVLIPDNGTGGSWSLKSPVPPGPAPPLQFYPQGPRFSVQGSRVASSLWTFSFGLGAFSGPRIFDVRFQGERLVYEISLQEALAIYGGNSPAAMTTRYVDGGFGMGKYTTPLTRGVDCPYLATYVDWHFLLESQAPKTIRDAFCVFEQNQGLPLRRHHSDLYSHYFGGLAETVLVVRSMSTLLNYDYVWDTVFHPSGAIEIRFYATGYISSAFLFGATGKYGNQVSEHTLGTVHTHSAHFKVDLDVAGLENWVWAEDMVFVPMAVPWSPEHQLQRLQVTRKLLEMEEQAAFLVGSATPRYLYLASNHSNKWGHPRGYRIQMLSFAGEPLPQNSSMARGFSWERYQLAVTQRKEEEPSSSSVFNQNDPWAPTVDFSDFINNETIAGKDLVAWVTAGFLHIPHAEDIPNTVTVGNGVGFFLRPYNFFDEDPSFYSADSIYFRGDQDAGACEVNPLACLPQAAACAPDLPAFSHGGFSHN
How it was run: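 H2O2 generation from 1 mM benzylamine was coupled via 1 U/mL HRP to 200 uM Amplex Red; inhibitors, serially diluted 1:3 over 8 points with under 1% final DMSO, had been preincubated 30 min at 37 °C. IC50 from percentage drop in rate.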

[2] = target: T2, recombinant human MAO-A (monoamine oxidase-A) (Homo sapiens, UniProt P21397); experiment: Activity on recombinant human MAO-A, method similar to the VAP-1 assay; details: substrate 0.5 mM tyramine; read-out: Inhibitory Activity (IC50, nM) MAO-A
T2 construct: purchased Sigma-Aldrich
T2 sequence (P21397 1-527): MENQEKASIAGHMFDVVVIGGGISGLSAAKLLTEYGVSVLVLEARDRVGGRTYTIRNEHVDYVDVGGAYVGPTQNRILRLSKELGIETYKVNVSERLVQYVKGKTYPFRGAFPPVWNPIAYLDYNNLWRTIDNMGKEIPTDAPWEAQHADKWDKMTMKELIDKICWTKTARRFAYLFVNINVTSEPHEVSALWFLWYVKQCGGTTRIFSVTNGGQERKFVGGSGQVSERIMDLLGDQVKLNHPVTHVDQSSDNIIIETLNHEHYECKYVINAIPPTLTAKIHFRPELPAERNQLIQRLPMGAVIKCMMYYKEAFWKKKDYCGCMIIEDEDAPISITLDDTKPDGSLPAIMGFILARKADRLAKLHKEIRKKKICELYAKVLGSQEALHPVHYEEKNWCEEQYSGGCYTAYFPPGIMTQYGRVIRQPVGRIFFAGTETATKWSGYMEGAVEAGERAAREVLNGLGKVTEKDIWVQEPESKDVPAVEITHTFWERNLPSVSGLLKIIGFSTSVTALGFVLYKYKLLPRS
How it was run: (§1)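 First, serially diluted compounds were incubated with recombinant enzyme in 50 mM sodium phosphate, pH 7.4, for 30 min at 37° C. Next, Amplex Red (200 uM), HRP (1 U/mL) and tyramine (0.5 mM, MAO-A) or benzylamine (1 mM, MAO-B) were added. Then fluorescence was monitored over 1-2 h and IC50 fitted.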

[3] = target: T3, recombinant human MAO-B (monoamine oxidase-B) (Homo sapiens, UniProt P27338); experiment: Activity on recombinant human MAO-B, method similar to the VAP-1 assay; details: substrate 1 mM benzylamine; read-out: Inhibitory Activity (IC50, nM) MAO-B
T3 construct: purchased Sigma-Aldrich
T3 sequence (P27338 1-520): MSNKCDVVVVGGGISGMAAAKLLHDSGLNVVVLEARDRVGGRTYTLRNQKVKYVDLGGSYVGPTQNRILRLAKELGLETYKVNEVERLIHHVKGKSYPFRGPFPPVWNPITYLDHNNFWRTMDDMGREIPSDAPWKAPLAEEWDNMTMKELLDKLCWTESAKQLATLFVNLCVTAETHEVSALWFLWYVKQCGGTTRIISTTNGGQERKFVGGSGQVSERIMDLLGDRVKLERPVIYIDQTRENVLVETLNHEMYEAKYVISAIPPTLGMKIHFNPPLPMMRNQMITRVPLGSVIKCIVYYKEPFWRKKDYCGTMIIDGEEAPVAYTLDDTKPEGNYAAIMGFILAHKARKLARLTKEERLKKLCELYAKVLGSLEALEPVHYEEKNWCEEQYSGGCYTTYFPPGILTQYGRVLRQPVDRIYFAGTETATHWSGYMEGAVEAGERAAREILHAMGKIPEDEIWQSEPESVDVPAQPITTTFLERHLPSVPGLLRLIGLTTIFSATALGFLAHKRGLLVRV
How it was run: as §1

[4] = target: T4, recombinant human DAO (diamine oxidase) (Homo sapiens, UniProt P19801); experiment: Activity on recombinant human DAO, method similar to the VAP-1 assay; details: substrate 1 mM putrescine; read-out: Inhibitory Activity (IC50, nM) DAO
T4 construct: purchased R&D systems
T4 sequence (P19801 20-751): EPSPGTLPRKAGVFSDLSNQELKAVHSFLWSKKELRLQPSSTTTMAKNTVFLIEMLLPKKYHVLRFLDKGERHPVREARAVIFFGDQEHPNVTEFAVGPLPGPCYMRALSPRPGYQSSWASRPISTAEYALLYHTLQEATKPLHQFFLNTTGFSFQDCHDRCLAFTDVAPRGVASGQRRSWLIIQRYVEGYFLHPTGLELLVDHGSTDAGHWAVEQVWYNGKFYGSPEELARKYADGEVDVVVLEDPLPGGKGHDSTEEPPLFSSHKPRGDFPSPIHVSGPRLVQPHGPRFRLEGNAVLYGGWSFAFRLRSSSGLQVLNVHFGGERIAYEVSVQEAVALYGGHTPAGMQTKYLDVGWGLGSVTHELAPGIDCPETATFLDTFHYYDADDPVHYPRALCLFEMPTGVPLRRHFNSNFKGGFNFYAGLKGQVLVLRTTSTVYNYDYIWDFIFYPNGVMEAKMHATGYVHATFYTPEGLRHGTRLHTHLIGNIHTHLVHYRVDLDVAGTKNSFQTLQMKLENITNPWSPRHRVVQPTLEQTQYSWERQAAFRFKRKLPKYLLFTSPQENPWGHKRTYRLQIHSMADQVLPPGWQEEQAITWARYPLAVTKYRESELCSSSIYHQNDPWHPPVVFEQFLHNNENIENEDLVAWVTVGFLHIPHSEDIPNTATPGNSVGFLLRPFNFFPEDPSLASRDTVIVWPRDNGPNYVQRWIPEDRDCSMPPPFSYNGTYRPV
How it was run: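 Inhibition of recombinant human diamine oxidase (DAO, R&D systems) was assessed by the same approach as the VAP-1 assay, using 1 mM putrescine as substrate. Hydrogen peroxide formed was detected through an HRP-coupled Amplex Red reaction yielding fluorescent resorufin, read at 544 nm excitation and 590 nm emission. IC50 values came from four-parameter logistic fitting in GraphPad Prism.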

IC50 [1] | IC50 [2] | IC50 [3] | IC50 [4] | Structure (SMILES)
1.1 nM | 140000 nM | 58 nM | 560 nM | NC/C(=C\F)Cn1ncn(Cc2ccc(/C=C/c3cccc(F)c3)s2)c1=O [Example 118, 2-[(2E)-2-(aminomethyl)-3-fluoroprop-2-en-1-yl]-4-(5-[(E)-2-(3-fluorophenyl)ethenyl]thiophen-2-ylmethyl)-2,4-dihydro-3H-1,2,4-triazol-3-one hydrochloride]
1.8 nM | > 100000 nM | 1200 nM | 860 nM | NC/C(=C\F)Cn1ncn(Cc2ccc(/C=C/c3ccc(C(F)(F)F)cc3)s2)c1=O [Example 119, 2-[(E)-2-(aminomethyl)-3-fluoro-allyl]-4-[[5-[(E)-2-[4-(trifluoromethyl)phenyl]vinyl]-2-thienyl]methyl]-1,2,4-triazol-3-one hydrochloride]
6.2 nM | 16000 nM | 340 nM | 1100 nM | CN(C)c1ccc(/C=C/c2ccc(Cn3cnn(C/C(=C/F)CN)c3=O)s2)cc1 [Example 120, 2-[(E)-2-(aminomethyl)-3-fluoro-allyl]-4-[[5-[2-[4-(dimethylamino)phenyl]vinyl]-2-thienyl]methyl]-1,2,4-triazol-3-one]
1.2 nM | > 100000 nM | 290 nM | 1800 nM | NC/C(=C\F)Cn1ncn(Cc2ccc(/C=C/c3ccsc3)s2)c1=O [Example 121, 2-[(E)-2-(aminomethyl)-3-fluoro-allyl]-4-[[5-[(E)-2-(3-thienyl)vinyl]-2-thienyl]methyl]-1,2,4-triazol-3-one hydrochloride]
0.6 nM | > 100000 nM | > 10000 nM | 250 nM | Cn1cnc2cc(/C=C/c3ccc(Cn4cnn(C/C(=C/F)CN)c4=O)s3)cnc21 [Example 123, 2-[(E)-2-(aminomethyl)-3-fluoro-allyl]-4-[[5-[(E)-2-(3-methylimidazo[4,5-b]pyridin-6-yl)vinyl]-2-thienyl]methyl]-1,2,4-triazol-3-one hydrochloride]
0.1 nM | > 100000 nM | 5100 nM | 270 nM | NC/C(=C\F)Cn1ncn(Cc2ccc(/C=C/c3cnc4c(c3)NC(=O)CO4)s2)c1=O [Example 124, 7-[(E)-2-[5-[[1-[(E)-2-(aminomethyl)-3-fluoro-allyl]-5-oxo-1,2,4-triazol-4-yl]methyl]-2-thienyl]vinyl]-1H-pyrido[2,3-b][1,4]oxazin-2-one hydrochloride]
3.5 nM | > 100000 nM | 2100 nM | 1600 nM | NC/C(=C\F)Cn1ncn(Cc2ccc(C#Cc3cccc(N)c3)s2)c1=O [Example 125, 2-[(2E)-2-(aminomethyl)-3-fluoroprop-2-en-1-yl]-4-(5-[(3-aminophenyl)ethynyl]thiophen-2-ylmethyl)-2,4-dihydro-3H-1,2,4-triazol-3-one hydrochloride]
3.4 nM | 57000 nM | 250 nM | 1000 nM | COc1ccc(C#Cc2ccc(Cn3cnn(C/C(=C/F)CN)c3=O)s2)cc1 [Example 126, 2-[(2E)-2-(aminomethyl)-3-fluoroprop-2-en-1-yl]-4-(5-[(4-methoxyphenyl)ethynyl]thiophen-2-ylmethyl)-2,4-dihydro-3H-1,2,4-triazol-3-one hydrochloride]
0.8 nM | > 100000 nM | 150 nM | 910 nM | NC/C(=C\F)Cn1ncn(Cc2ccc(C#Cc3cccnc3)s2)c1=O [Example 127, 2-[(2E)-2-(aminomethyl)-3-fluoroprop-2-en-1-yl]-4-[5-(pyridin-3-ylethynyl)thiophen-2-yl]methyl-2,4-dihydro-3H-1,2,4-triazol-3-one hydrochloride]
0.7 nM | 30000 nM | 490 nM | 9800 nM | CN(C)c1ccc(C#Cc2ccc(Cn3cnn(C/C(=C/F)CN)c3=O)s2)cn1 [Example 128, 2-[(E)-2-(aminomethyl)-3-fluoro-allyl]-4-[[5-[2-[6-(dimethylamino)-3-pyridyl]ethynyl]-2-thienyl]methyl]-1,2,4-triazol-3-one]
0.6 nM | > 100000 nM | 770 nM | 360 nM | NC/C(=C\F)Cn1ncn(Cc2ccc(C#Cc3ccc(N4CCOCC4)nc3)s2)c1=O [Example 129, 2-[(E)-2-(aminomethyl)-3-fluoro-allyl]-4-[[5-[2-(6-morpholino-3-pyridyl)ethynyl]-2-thienyl]methyl]-1,2,4-triazol-3-one hydrochloride]
0.5 nM | 57400 nM | 440 nM | 1500 nM | Cn1cncc1C#Cc1ccc(Cn2cnn(C/C(=C/F)CN)c2=O)s1 [Example 130, 2-[(2E)-2-(aminomethyl)-3-fluoroprop-2-en-1-yl]-4-(5-[(1-methyl-1H-imidazol-5-yl)ethynyl]thiophen-2-ylmethyl)-2,4-dihydro-3H-1,2,4-triazol-3-one hydrochloride]
